Test results taken from patent US5948754A, “Cyclic hexapeptides, their production and use” (Takeda Chemical Industries, Ltd., priority 1993, dated 1999).
Where a SMILES comes first, the peptide text is derived from it. [ ]: non-standard residue; d: D form. The star is where a group is joined. Piperazinyl(4-(2-MeOPh)) = COc1ccccc1N1CCN(*)CC1; Piperazinyl(4-Ph) = c1ccc(N2CCN(*)CC2)cc1; dGly(2-thienyl) = N[C@@H](C(=O)O)c1cccs1; d(tBuAla) = CC(C)(C)C[C@@H](N)C(=O)O

What was measured:
[1] = target: T1, endothelin A (ETA) receptors (Sus scrofa, UniProt Q29010); assay: Determination of ETA receptor binding activity ([125I]ET-1, swine ventricular muscle membrane fraction); details: [125I]ET-1 binding, 25° C., 1 hour
T1 construct: A membrane fraction prepared from swine ventricular muscle; from tissue; host or cells: swine ventricular muscle membrane fraction
T1 sequence (Q29010 21-427): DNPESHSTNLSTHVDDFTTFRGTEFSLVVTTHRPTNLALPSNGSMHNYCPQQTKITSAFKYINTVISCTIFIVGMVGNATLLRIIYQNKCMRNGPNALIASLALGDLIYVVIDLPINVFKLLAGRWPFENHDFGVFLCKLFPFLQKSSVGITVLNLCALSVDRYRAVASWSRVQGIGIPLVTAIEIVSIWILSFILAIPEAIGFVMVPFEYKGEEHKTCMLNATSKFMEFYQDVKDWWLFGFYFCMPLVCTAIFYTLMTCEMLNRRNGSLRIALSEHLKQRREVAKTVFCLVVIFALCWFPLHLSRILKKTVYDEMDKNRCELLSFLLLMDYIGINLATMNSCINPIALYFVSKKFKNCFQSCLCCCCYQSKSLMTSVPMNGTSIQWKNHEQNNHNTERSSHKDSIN
Procedure: Determination of endothelin receptor binding activity (1) Determination of ETA receptor binding activity
A membrane fraction prepared from swine ventricular muscle was diluted to 12 μg/ml with an assaying buffer and dispensed to assaying tubes at 100 μl per tube. To this membrane fraction suspension were added 2 μl of a solution of endothelin-l labeled with 100 pmole of radioactive iodine ([^125 I]ET-1, produced by Amersham Medical Ltd.) and 3 μl of a solution of the subject compound at various concentrations, followed by incubation at 25° C. for 1 hour. The suspension was then diluted with an ice-cooled assaying buffer and filtered through a glass filter GF/F (produced by Whatman K.K.). The membrane fraction containing endothelin A (ETA) receptors and receptor-bound [^125 I)ET-1 were recovered on the filter. The radioactivity retained on the filter was measured to obtain the amount of [^125 I]ET-1 bound to the ETA receptors. The amount of [^125 I,]ET-1 bound in the presence of ET-1 in great excess as the test compound was taken as the amount of nonspecific binding. The amount of specific binding (SPB) of [^125 I]ET-1 was obtained by subtracting the amount of nonspecific binding from the total amount of binding determined. The percent SPB value at test compound concentration C (molar concentration by volume) was defined as the percent ratio of the amount of specific binding relative to the amount of specific binding obtained at a test compound concentration of 0. The thus-obtained value was substituted for the following "pseudo-Hill's equation" to calculate the test compound concentration (IC50 value) required to have a value of 50% for the amount of specific binding of [125I]ET-1.
(§1) log[%SPB/(100 - %SPB)]=n[logC - log(IC50)]
(§2) n: Pseudo-Hill's coefficient

[2] = target: T2, endothelin B (ETB) receptors (Bos taurus, UniProt P28088); assay: Determination of ETB receptor binding activity ([125I]ET-1, bovine brain membrane fraction); details: [125I]ET-1 binding, 25° C., 1 hour
T2 construct: A membrane fraction prepared from a bovine brain; from tissue; host or cells: bovine brain membrane fraction
T2 sequence (P28088 27-441): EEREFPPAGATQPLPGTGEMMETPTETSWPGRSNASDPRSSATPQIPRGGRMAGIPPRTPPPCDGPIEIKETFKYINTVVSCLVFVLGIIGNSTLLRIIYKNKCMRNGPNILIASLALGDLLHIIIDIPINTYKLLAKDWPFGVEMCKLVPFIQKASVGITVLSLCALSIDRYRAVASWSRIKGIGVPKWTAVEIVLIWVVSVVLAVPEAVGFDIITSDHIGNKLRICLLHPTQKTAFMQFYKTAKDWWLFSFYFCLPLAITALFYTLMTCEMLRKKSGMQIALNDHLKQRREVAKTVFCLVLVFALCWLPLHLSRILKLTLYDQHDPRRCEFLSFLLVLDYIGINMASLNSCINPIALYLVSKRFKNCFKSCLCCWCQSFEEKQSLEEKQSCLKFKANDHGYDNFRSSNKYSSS
Procedure: (2) Determination of ETB receptor binding activity
A membrane fraction prepared from a bovine brain was diluted to 150 μg/ml with an assaying buffer and dispensed to assaying tubes at 100 μl per tube. To this membrane fraction suspension were added 2 μl of a solution of endothelin-1 labeled with 100 pM of radioactive iodine ([^125 I]ET-1, produced by Amersham Medical Ltd.) and 3 μl of a solution of the subject compound at various concentrations, followed by incubation at 25° C. for 1 hour. The suspension was then diluted with an ice-cooled assaying buffer and filtered through a glass filter GF/F (produced by Whatman K.K.). The membrane fraction containing endothelin B (ETB) receptors and receptor-bound [^125 I)ET-1 were recovered on the filter. The radioactivity retained on the filter was measured to obtain the amount of (^125 I]ET-1 bound to the ETB receptors. The amount of (^125 I]ET-1 bound in the presence of ET-1 in great excess as the test compound was taken as the amount of nonspecific binding. The amount of specific binding (SPB) of [^125 I]ET-1 was obtained by subtracting the amount of nonspecific binding from the total amount of binding determined. The percent SPB value at test compound concentration C (molar concentration by volume) was defined as the percent ratio of the amount of specific binding relative to the amount of specific binding obtained at a test compound concentration of 0. The thus-obtained value was substituted for the following "pseudo-Hill's equation" to calculate the test compound concentration (IC50 value) required to have a value of 50% for the amount of specific binding of [^125 I]ET-1.
as §1, §2

[3] = test system: porcine coronary vein ring preparations constricted with sarafotoxin S6c; assay: Determination of porcine coronary vein relaxation activity; details: peptide at 0.01 μM; vein constricted with S6c 1 nM for 45 min; relative to constriction of S6c (100%)
Procedure: Determination of porcine coronary vein relaxation activity
Ring preparations of porcine coronary vein (3 mm in a diameter) were placed in an organ bath filled with Krebs solution gassed with 95% O2 /5%CO2 at 37° C. and allowed to stand for 1.5 h at a resting load of 0.5 g tension for vein. The preparations were constricted with 60 mM KCl for 15 min and then washed and allowed to stand for 1.5 h at the resting load. The vein preparations constricted with sarafotoxin S6c (S6c) at 1 nM for 45 min were used to determine the effect of the peptide of Example 4 at 0.01 μM. Result is shown in the following Table as the relaxation rate relative to the constriction of S6c (100%).

Row | Molecule | IC50 [1] [nM] | IC50 [2] [nM] | relaxation rate (%) [3] [%]
1 | CC(C)C[C@@H]1NC(=O)[C@@H](c2cccs2)NC(=O)[C@H](CC(=O)O)NC(=O)[C@H](CC(=O)N2CCN(c3ccccc3)CC2)NC(=O)[C@@H](CC(=O)O)NC(=O)[C@@H](Cc2c[nH]c3ccccc23)NC1=O [Reference Example 1, cyclo(--D--Asp--L--Asp(B1)--L--Asp--D--Thg(2)--L--Leu--D--Trp--), reference compound] (cyclo(D(Piperazinyl(4-Ph))D[dGly(2-thienyl)]L[dW][dD])) | 0.08 | 120 | 
2 | COc1ccccc1N1CCN(C(=O)C[C@@H]2NC(=O)[C@@H](CC(=O)O)NC(=O)[C@@H](Cc3c[nH]c4ccccc34)NC(=O)[C@H](CC(C)C)NC(=O)[C@@H](CC(C)(C)C)NC(=O)[C@H](CC(=O)O)NC2=O)CC1 [Example 1, cyclo[--D--Asp--Asp(B7)--Asp--D--γMeLeu--L--Leu--D--Trp--]] (cyclo(D(Piperazinyl(4-(2-MeOPh)))D[d(tBuAla)]L[dW][dD])) | 0.18 | 11 | 
3 | COc1ccccc1N1CCN(C(=O)C[C@@H]2NC(=O)[C@@H](CC(=O)O)NC(=O)[C@@H](Cc3cn(C(C)=O)c4ccccc34)NC(=O)[C@H](CC(C)C)NC(=O)[C@@H](CC(C)(C)C)NC(=O)[C@H](CC(=O)O)NC2=O)CC1 [Example 3, cyclo(--D--Asp--L--Asp(B7)--L--Asp--D--γMeLeu--L--Leu--D--Trp(Ac)--)] (cyclo(D(Piperazinyl(4-(2-MeOPh)))D[d(tBuAla)]L[dW](Ac)[dD])) | 0.49 | 14 | 
4 | cyclo[--D--Asp--Asp(B7)--Asp--D--γMeLeu--Leu--D--Trp--].2Na [Example 4] |  |  | 66
5 | CC(C)C[C@@H]1NC(=O)[C@@H](CC(C)(C)C)NC(=O)[C@H](CC(=O)O)NC(=O)[C@H](CC(=O)N2CCN(c3ccccc3)CC2)NC(=O)[C@@H](CC(=O)O)NC(=O)[C@@H](Cc2c[nH]c3ccccc23)NC1=O [Example 2, cyclo(--D--Asp--L--Asp(B1)--L--Asp--D--γMeLeu--L--Leu--D--Trp--)] (cyclo(D(Piperazinyl(4-Ph))D[d(tBuAla)]L[dW][dD])) | 0.18 | 28 | 
